Data published in PubChem BioAssay (NCI).
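Method: 48-hour compound exposure of cells in 96-well plates, five concentrations, linear interpolation of endpoints. TGI denotes the concentration required for complete inhibition of growth.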

How the values were obtained:
Assay in all cases: inhibition of tumour cell growth, NCI panel, 48 h
HOP-62 NSCLC = tested on: HOP-62 NSCLC
NCI-H460 lung = tested on: NCI-H460 lung
MDA-MB-231 breast = tested on: MDA-MB-231 breast
M14 melanoma = tested on: M14 melanoma
NCI/ADR-RES ovarian = tested on: NCI/ADR-RES ovarian
BT-549 breast = tested on: BT-549 breast
SR leukemia = tested on: SR leukemia
HCC-2998 colon = tested on: HCC-2998 colon
SK-OV-3 ovarian = tested on: SK-OV-3 ovarian
OVCAR-5 ovarian = tested on: OVCAR-5 ovarian
SF-539 CNS = tested on: SF-539 CNS
EKVX NSCLC = tested on: EKVX NSCLC
TK-10 renal = tested on: TK-10 renal
PC-3 prostate = tested on: PC-3 prostate
LOX IMVI melanoma = tested on: LOX IMVI melanoma
SNB-19 CNS = tested on: SNB-19 CNS
SN12C renal = tested on: SN12C renal
CCRF-CEM leukemia = tested on: CCRF-CEM leukemia
MDA-N = tested on: MDA-N
UO-31 renal = tested on: UO-31 renal
MALME-3M melanoma = tested on: MALME-3M melanoma
SK-MEL-2 melanoma = tested on: SK-MEL-2 melanoma
NCI-H23 lung = tested on: NCI-H23 lung
HL-60(TB) leukemia = tested on: HL-60(TB) leukemia
MCF7 breast = tested on: MCF7 breast
OVCAR-8 ovarian = tested on: OVCAR-8 ovarian
T-47D breast = tested on: T-47D breast
SF-295 CNS = tested on: SF-295 CNS
786-0 renal = tested on: 786-0 renal
HOP-92 NSCLC = tested on: HOP-92 NSCLC
SK-MEL-28 melanoma = tested on: SK-MEL-28 melanoma
K-562 leukemia = tested on: K-562 leukemia
ACHN renal = tested on: ACHN renal
NCI-H226 lung = tested on: NCI-H226 lung
COLO 205 colon = tested on: COLO 205 colon
SW-620 colon = tested on: SW-620 colon
NCI-H522 lung = tested on: NCI-H522 lung
HCT-15 colon = tested on: HCT-15 colon
RXF 393 renal = tested on: RXF 393 renal
KM12 colon = tested on: KM12 colon
HCT-116 colon = tested on: HCT-116 colon
OVCAR-3 ovarian = tested on: OVCAR-3 ovarian
HT29 colon = tested on: HT29 colon
SF-268 CNS = tested on: SF-268 CNS
IGROV1 ovarian = tested on: IGROV1 ovarian
UACC-257 melanoma = tested on: UACC-257 melanoma
OVCAR-4 ovarian = tested on: OVCAR-4 ovarian
HS 578T breast = tested on: HS 578T breast
A498 renal = tested on: A498 renal
CAKI-1 renal = tested on: CAKI-1 renal
SK-MEL-5 melanoma = tested on: SK-MEL-5 melanoma
RPMI-8226 leukemia = tested on: RPMI-8226 leukemia
MOLT-4 leukemia = tested on: MOLT-4 leukemia
A549 NSCLC = tested on: A549 NSCLC
MDA-MB-435 = tested on: MDA-MB-435
DU-145 prostate = tested on: DU-145 prostate
UACC-62 melanoma = tested on: UACC-62 melanoma
U251 CNS = tested on: U251 CNS
SNB-75 CNS = tested on: SNB-75 CNS

COC(=O)C1=C(C)NC(C)=C([N+](=O)[O-])C1c1cccc(N=O)c1 (configuration not stated)
TGI (HOP-62 NSCLC): 34.5 µM | TGI (NCI-H460 lung): 31.1 µM | TGI (MDA-MB-231 breast): 32.6 µM | TGI (M14 melanoma): 25.8 µM | TGI (NCI/ADR-RES ovarian): 45.9 µM | TGI (BT-549 breast): 30.7 µM | TGI (SR leukemia): > 100 µM | TGI (HCC-2998 colon): 34.8 µM | TGI (SK-OV-3 ovarian): 46.6 µM | TGI (OVCAR-5 ovarian): 30.5 µM | TGI (SF-539 CNS): 30.9 µM | TGI (EKVX NSCLC): 41.2 µM | TGI (TK-10 renal): 25.4 µM | TGI (PC-3 prostate): 32.9 µM | TGI (LOX IMVI melanoma): 30 µM | TGI (SNB-19 CNS): > 100 µM | TGI (SN12C renal): 34.5 µM | TGI (CCRF-CEM leukemia): > 100 µM | TGI (MDA-N): 21.6 µM | TGI (UO-31 renal): 24.8 µM | TGI (MALME-3M melanoma): 25.2 µM | TGI (SK-MEL-2 melanoma): 33.8 µM | TGI (NCI-H23 lung): 33.5 µM | TGI (HL-60(TB) leukemia): > 100 µM | TGI (MCF7 breast): 38.5 µM | TGI (OVCAR-8 ovarian): 32.1 µM | TGI (T-47D breast): 37.3 µM | TGI (SF-295 CNS): 51.5 µM | TGI (786-0 renal): 27.2 µM | TGI (HOP-92 NSCLC): 12.8 µM | TGI (SK-MEL-28 melanoma): 32 µM | TGI (K-562 leukemia): > 100 µM | TGI (ACHN renal): 24.8 µM | TGI (NCI-H226 lung): 63.4 µM | TGI (COLO 205 colon): 29 µM | TGI (SW-620 colon): 13.3 µM | TGI (NCI-H522 lung): 5.34 µM | TGI (HCT-15 colon): 29.1 µM | TGI (RXF 393 renal): 27.6 µM | TGI (KM12 colon): 26.4 µM | TGI (HCT-116 colon): 23 µM | TGI (OVCAR-3 ovarian): 28.6 µM | TGI (HT29 colon): 33.1 µM | TGI (SF-268 CNS): 32 µM | TGI (IGROV1 ovarian): 29.5 µM | TGI (UACC-257 melanoma): 25.1 µM | TGI (OVCAR-4 ovarian): 24.7 µM | TGI (HS 578T breast): 39.1 µM | TGI (A498 renal): 58.4 µM | TGI (CAKI-1 renal): 20.6 µM | TGI (SK-MEL-5 melanoma): 29.6 µM | TGI (RPMI-8226 leukemia): > 100 µM | TGI (MOLT-4 leukemia): > 100 µM | TGI (A549 NSCLC): 40.1 µM | TGI (MDA-MB-435): 25.4 µM | TGI (DU-145 prostate): 28.7 µM | TGI (UACC-62 melanoma): 29 µM | TGI (U251 CNS): 32 µM

COC(=O)c1cc(C)ccc1CC(Cc1ccc(C)cc1)C(=O)OC (configuration not stated)
TGI (HOP-62 NSCLC): > 100 µM | TGI (NCI-H460 lung): > 100 µM | TGI (MDA-MB-231 breast): > 100 µM | TGI (M14 melanoma): > 100 µM | TGI (NCI/ADR-RES ovarian): > 100 µM | TGI (BT-549 breast): > 100 µM | TGI (SR leukemia): > 100 µM | TGI (HCC-2998 colon): > 100 µM | TGI (SK-OV-3 ovarian): 67.2 µM | TGI (OVCAR-5 ovarian): > 85.4 µM | TGI (SF-539 CNS): > 100 µM | TGI (EKVX NSCLC): > 100 µM | TGI (TK-10 renal): > 100 µM | TGI (PC-3 prostate): > 100 µM | TGI (LOX IMVI melanoma): > 100 µM | TGI (SNB-19 CNS): > 100 µM | TGI (SN12C renal): > 100 µM | TGI (SNB-75 CNS): > 90.7 µM | TGI (CCRF-CEM leukemia): > 100 µM | TGI (MDA-N): > 100 µM | TGI (UO-31 renal): > 100 µM | TGI (MALME-3M melanoma): 95.5 µM | TGI (SK-MEL-2 melanoma): > 90.3 µM | TGI (NCI-H23 lung): > 100 µM | TGI (HL-60(TB) leukemia): > 29.1 µM | TGI (MCF7 breast): > 31.6 µM | TGI (OVCAR-8 ovarian): > 100 µM | TGI (T-47D breast): > 100 µM | TGI (SF-295 CNS): > 100 µM | TGI (786-0 renal): > 100 µM | TGI (HOP-92 NSCLC): 60.2 µM | TGI (SK-MEL-28 melanoma): > 100 µM | TGI (K-562 leukemia): > 38.7 µM | TGI (ACHN renal): > 100 µM | TGI (NCI-H226 lung): > 100 µM | TGI (COLO 205 colon): > 100 µM | TGI (SW-620 colon): > 100 µM | TGI (NCI-H522 lung): > 100 µM | TGI (HCT-15 colon): > 77.9 µM | TGI (RXF 393 renal): 11.5 µM | TGI (KM12 colon): > 100 µM | TGI (HCT-116 colon): > 100 µM | TGI (OVCAR-3 ovarian): > 100 µM | TGI (HT29 colon): 80.4 µM | TGI (SF-268 CNS): > 35.3 µM | TGI (IGROV1 ovarian): > 100 µM | TGI (UACC-257 melanoma): > 100 µM | TGI (OVCAR-4 ovarian): > 100 µM | TGI (HS 578T breast): > 100 µM | TGI (A498 renal): > 100 µM | TGI (CAKI-1 renal): > 100 µM | TGI (SK-MEL-5 melanoma): 12.6 µM | TGI (RPMI-8226 leukemia): > 100 µM | TGI (MOLT-4 leukemia): > 49.5 µM | TGI (A549 NSCLC): > 100 µM | TGI (MDA-MB-435): > 100 µM | TGI (DU-145 prostate): > 100 µM | TGI (UACC-62 melanoma): > 100 µM | TGI (U251 CNS): > 100 µM
